Results published in patent US20240294519A1, “PYRROLO[2,3-b]PYRIDINE PGDH INHIBITORS AND METHODS OF MAKING AND USING” (EPIRIUM BIO INC., priority 2021, published 2024).
Where “and” joins values, the source holds several entries; their conditions need not be identical. Equal values may be shown once.

How the values were obtained:
15-PGDH/HPGD = molecular target: T1, 15-PGDH/HPGD (Homo sapiens, UniProt P15428); assay: hPGDH inhibitor screening biochemical assay; details: 10 nM enzyme, 15 μM PGE2, 0.25 mM NAD, fluorescence ex/em 340/485 nm
T1 construct: purchased R&D System 5660-DH
T1 sequence (P15428 1-266): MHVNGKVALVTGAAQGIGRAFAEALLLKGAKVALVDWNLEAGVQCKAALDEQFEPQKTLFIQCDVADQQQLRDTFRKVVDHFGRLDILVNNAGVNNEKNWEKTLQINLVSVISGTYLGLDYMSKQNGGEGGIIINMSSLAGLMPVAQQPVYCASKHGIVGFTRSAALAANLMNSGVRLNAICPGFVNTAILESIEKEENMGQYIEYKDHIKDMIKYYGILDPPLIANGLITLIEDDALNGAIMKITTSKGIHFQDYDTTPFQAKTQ
Method in brief: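 Recombinant human 15-PGDH (10 nM) was preincubated with compound for 10 min at 37° C in 50 mM Tris-HCl pH 7.5 with 0.01% Tween 20. Reaction with 15 μM PGE2 and 0.25 mM NAD+ ran 10 min at room temperature, read by fluorescence at ex/em 340/485 nm. IC50 was derived from 10-point curves, relative to 1% DMSO.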

15-PGDH = molecular target: T2, 15-PGDH (Homo sapiens, UniProt P15428); assay: A549 cell based assay: PGE2 in supernatant after IL-1β (HTRF); details: A549 cells, fold induction of PGE2, IL-1β plus test article versus IL-1β only
T2 construct: 15-PGDH is highly expressed in resting human lung adenocarcinoma cells (A549); endogenous in cells; host or cells: A549
T2 sequence (P15428 1-266): T1 sequence (P15428 1-266)
Method: Cell Based Assay: 15-PGDH is highly expressed in resting human lung adenocarcinoma cells (A549) (Tong et al., 2006), and this cell line was used to assess 15-PGDH inhibition by MF-300Na in vitro.
In this assay, A549 cells are treated with interleukin (IL) 1β, which induces the expression of cycloxygenase-2 and the synthesis of PGE2 (Tong et al., 2006). In the studies evaluating test articles, thirty thousand A549 cells were seeded in 100 μL F12K completed media and incubated for 24 hours at 37° C. with 5% CO2 before being serum-starved for 24 hours. On the day of the experiment, buffer was changed to complete medium, and cells were incubated for 30 minutes with compounds prior to the addition of IL-1β (final concentration of 0.1-0.25 ng/mL) overnight at 37° C. with 5% CO2. Each concentration was run in triplicate. […] The PGE2 in the supernatant was detected and quantified using a Cisbio HTRF technology (Homogeneous Time-Resolved Fluorescence) kit (62P2APEG-62P2APEH) according to the manufacturer's recommendations, quantifying the fold induction of PGE2 of cells treated with IL-1β plus test article, versus treatment with IL-1β only.

| SMILES | IC50 (15-PGDH/HPGD) [µM] | PGE2 - HTRF over IL-β induction at 0.001 μM (15-PGDH) | PGE2 - HTRF over IL-β induction at 0.01 μM (15-PGDH) | PGE2 - HTRF over IL-β induction at 0.1 μM (15-PGDH) | PGE2 - HTRF over IL-β induction at 1 μM (15-PGDH) |
| --- | --- | --- | --- | --- | --- |
| CCC1CCCN(C(=O)c2cnc3c(ccn3-c3cncc(NC(=O)OC)c3)c2)C1 (stereo in doubt) [Compound B-70, methyl(S)-(5-(5-(3-ethylpiperidine-1-carbonyl)-1H-pyrrolo[2,3-b]pyridin-1-yl)pyridin-3-yl)carbamate] | < 0.1 | 3.59 | 4.44 | 4.8 | 4.34 |
| O=C(c1cnc2c(ccn2-c2cccc(-c3nc[nH]n3)c2)c1)N1CCC(F)(F)CC1 [Compound B-36, (1-(3-(4H-1,2,4-triazol-3-yl)phenyl)-1H-pyrrolo[2,3-b]pyridin-5-yl)(4,4-difluoropiperidin-1-yl)methanone] | < 0.1 | 2.93 | 4.16 | 3.31 | 4.33 |
| O=C(c1cnc2c(ccn2-c2ccc(-c3nnc(C4CC4)[nH]3)cc2)c1)N1CCC(F)(F)CC1 [Compound B-72] | < 0.1 | 2.17 | 3.03 | 3.96 | 3.96 |
| O=C(c1cnc2c(ccn2-c2ccc(N3CCOC3=O)nc2)c1)N1CCC[C@H](C(F)(F)F)C1 [Compound B-80] | < 0.1 | 2.36 | 2.83 | 2.86 | 2.4 |
| O=C(c1cnc2c(ccn2-c2ccc(N3CCOC3=O)nc2)c1)N1CCC[C@@H](C(F)(F)F)C1 [Compound B-81] | 0.1 to 1 | 0.51 | 1.08 | 2.21 | 1.92 |
| COC(=O)Nc1cncc(-n2ccc3cc(C(=O)N4CCCC(F)(F)C4)cnc32)c1 [Compound B-82] | < 0.1 | 2.7 | 5.52 | 5.36 | 4.19 |
| CCC1CCCN(C(=O)c2cnc3c(ccn3-c3cncc(NC(=O)OC)c3)c2)C1 (centres unmarked) [Compound B-83] | < 0.1 | 1.4 | 2.64 | 2.84 | 4.39 |
| COC(=O)Nc1cncc(-n2ccc3cc(C(=O)N4CCCC(C(F)(F)F)C4)cnc32)c1 (centres unmarked) [Compound B-84] | < 0.1 | 1.94 | 3.38 | 4.02 | 5.76 |
| CC(C)OC(=O)Nc1cncc(-n2ccc3cc(C(=O)N4CCC(F)(F)CC4)cnc32)c1 [Compound B-88] | < 0.1 | 2.14 | 3.77 | 3.25 | 4.67 |
| CNc1nc2ccc(-n3ccc4cc(C(=O)N5CCC(F)(F)CC5)cnc43)cn2n1 [Compound B-89] | < 0.1 | 1.57 | 3.31 | 3 | 5.13 |
| Cn1cc(C(=O)Nc2cncc(-n3ccc4cc(C(=O)N5CCC(F)(F)CC5)cnc43)c2)cn1 [Compound B-92] | < 0.1 |  | 2.91 and 2.33 | 4.01 and 3.89 | 3.56 and 3.92 |
| CCOC(=O)Nc1cc(-n2ccc3cc(C(=O)N4CCC(F)(F)CC4)cnc32)cnc1C [Compound B-96] | < 0.1 | 0.77 | 1.54 | 3.22 | 5.19 |
| CN(C)c1nc2ccc(-n3ccc4cc(C(=O)N5CCC(F)(F)CC5)cnc43)cn2n1 [Compound B-102] | 0.1 to 1 | 0.95 | 1.08 | 3.09 | 5.02 |
| CCC1CCCN(C(=O)c2cnc3c(ccn3-c3ccc(N4CCOC4=O)nc3)c2)C1 (centres unmarked) [Compound B-113] | < 0.1 | 6.05 | 3.06 | 8.74 | 10.7 |
| O=C(c1cnc2c(ccn2-c2ccc(N3CCOC3=O)nc2)c1)N1CCCC(C(F)(F)F)C1 (centres unmarked) [Compound B-114] | < 0.1 | 2.23 | 5.78 | 7.25 | 11.1 |
| O=C(Nc1cncc(-n2ccc3cc(C(=O)N4CCC(F)(F)CC4)cnc32)c1)C1CCOCC1 [Compound B-232] | < 0.1 | 0.34 | 1.02 | 2.68 | 4.46 |
| O=C(Nc1cncc(-n2ccc3cc(C(=O)N4CCC(F)(F)CC4)cnc32)c1)C1CCCC1 [Compound B-234] | < 0.1 | 0.70 | 4.01 | 4.06 | 3.42 |
| O=C(Nc1cncc(-n2ccc3cc(C(=O)N4CCC(F)(F)CC4)cnc32)c1)C1CCC1 [Compound B-236] | < 0.1 | 1.63 | 3.57 | 6.46 | 8.32 |
